In publication PMC8347709 (International Journal of Molecular Sciences, 2021):

How the values were obtained:
[1] = stability of the formulated product; type: physicochemical; details: in saline, within 24 h at room temperature
Protocol: The purification of the product was performed by semipreparative HPLC (Figure 3), followed by trapping on a Sep-Pack C18-light cartridge and elution with EtOH. For biological experiments, the solvent was evaporated under a stream of nitrogen at 70 °C until a volume of about 20–30 µL remained. The product was formulated by using 280 µL saline (0.9% aqueous NaCl). The total synthesis time was about 70 min. […] A logD7.4 of 3.15 ± 0.25 was determined by the shake flask method, which is in accordance with the calculated cLogP of 3.0 (ChemDraw Professional 19.0).

hCB2R(D80N) = molecular target: T1, hCB2R(D80N) (Homo sapiens, UniProt P34972, D80N); experiment: PET in rat model with local overexpression of hCB2R(D80N) in the right striatum; type: in vivo; design: reduction of the AUC20–60min by displacement: concentration or dose not given beside the values; details: for time to peak: TAC; for reduction of the AUC20–60min by displacement: GW405833 i.v. at 20 min p.i.; for change of AUC40–60min by displacement versus vehicle: GW405833 5 mg/kg i.v. 20 min after tracer
T1 construct: expressed in transfected cells; host or cells: rat striatal cells transduced in vivo with AAV2/7-CaMKII0.4-intron-hCB2R D80N
T1 sequence (P34972 whole entry D80N): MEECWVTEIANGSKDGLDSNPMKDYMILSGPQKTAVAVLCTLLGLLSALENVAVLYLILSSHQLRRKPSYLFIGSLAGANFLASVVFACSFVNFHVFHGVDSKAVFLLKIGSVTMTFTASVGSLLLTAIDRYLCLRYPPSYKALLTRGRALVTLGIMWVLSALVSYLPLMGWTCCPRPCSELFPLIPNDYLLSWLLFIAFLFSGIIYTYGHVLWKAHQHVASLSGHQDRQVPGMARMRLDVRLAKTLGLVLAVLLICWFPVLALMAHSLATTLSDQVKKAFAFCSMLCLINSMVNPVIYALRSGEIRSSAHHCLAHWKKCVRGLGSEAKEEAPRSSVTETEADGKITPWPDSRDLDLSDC
Description: (§1) For the uptake studies into the spleen three male Wistar Hun rats (Janvier Laboratories, Le Genest Saint Isle, France) weighing 268 ± 56 g were used. For the uptake studies into the brain, five female Wistar rats weighing 263 ± 13 g carrying the stereotactically injected AAV 2/7-CaMKII0.4-intron-hCB2R D80N (right striatum) and AAV2/7-CaMKII0.4-intron-3flag-eGFP (contralateral, left striatum). Animals were initially anaesthetised with 5% isoflurane and placed on a thermostatically heated animal bed where anaesthesia was maintained with 2% isoflurane in 60% oxygen/38% room air. […] List-mode PET data were binned as a series of attenuation-corrected sinogram frames (12 × 10 s, 6 × 30 s, 5 × 60 s and 10 × 300 s) and were reconstructed by ordered subset expectation maximisation (OSEM3D) with four iterations, six subsets and a voxel size of 0.4 mm^3 (Nucline v2.01, Mediso, Hungary). The analysis of reconstructed datasets was performed with PMOD software (v4.103, PMOD Technologies LLC, Zurich, Switzerland). Non-parametrical analyses of achieved time-activity curves (TACs) were performed with Microsoft Excel to determine the time to peak, the TAC peak value and the area-under-the-zero-momentum curve (AUC):(1) AUC0−tx=∫0txcradioactivity × dt where c (radioactivity) is expressed as a standardised uptake value normalised to the bodyweight in g (SUV), the area-under-first-momentum curve (AUMC):(2) AUMC0−tx=∫0txt × cradioactivity × dt and the mean residence time (MRT):(3) MRT=AUMC0−tx/AUC0−tx

hCB2R = hCB2R (Homo sapiens, UniProt P34972); experiment: homologous competition with [18F]LU14 on hCB2R-CHO cell membrane homogenates; type: binding; design: host or cells: CHO cells, stably transfected
Sequence of hCB2R (P34972 whole entry): as the sequence (P34972 whole entry D80N) above, with N80D counted along it
Protocol: A value of 2.9 nM was experimentally determined. Next, the in vitro evaluation by autoradiography on spleen tissue was performed (Supplementary Figure S1), as the spleen is regarded as a suitable reference organ, having high densities of CB2R (rat spleen CB2R Bmax = 0.71 pmol/mg).
The inhibition curve was obtained by non-linear regression of percent specific binding (mean ±SD; one experiment run in triplicate) plotted versus the log concentration of the test compound.

[2] = LogD7.4 by shake-flask method; type: physicochemical; details: n-octanol/phosphate-buffered saline, n-octanol/PBS pH 7.4, room temperature
Protocol: The measurement was performed twice in triplicate.

[3] = molecular target: T2, CB2R expression in the spleen (Rattus norvegicus, UniProt Q9QZN9); experiment: dynamic PET/MR of spleen uptake in healthy rats; type: in vivo, Wistar rats; details: single blocking experiment, GW405833 1.5 mg/kg i.v. 10 min prior tracer
T2 construct: from tissue; host or cells: spleen of living male Wistar Hun rats (in vivo PET)
T2 sequence (Q9QZN9 1-360): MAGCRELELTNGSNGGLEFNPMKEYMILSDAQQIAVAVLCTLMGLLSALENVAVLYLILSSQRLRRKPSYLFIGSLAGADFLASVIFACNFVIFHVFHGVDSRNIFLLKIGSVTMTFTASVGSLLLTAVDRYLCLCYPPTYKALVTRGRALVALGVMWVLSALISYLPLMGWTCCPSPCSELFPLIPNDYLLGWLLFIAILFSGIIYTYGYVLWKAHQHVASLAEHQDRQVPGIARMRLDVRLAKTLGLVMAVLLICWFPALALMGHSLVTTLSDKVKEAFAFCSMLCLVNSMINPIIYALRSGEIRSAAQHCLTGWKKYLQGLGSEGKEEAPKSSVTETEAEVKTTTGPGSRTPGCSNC
Description: as §1, with “The analysis of reconstructed datasets was performed with PMOD software (v4.103, PMOD Technologies LLC, Zurich, Switzerland).” left out, “MRT=AUMC0−tx/AUC0−tx […]” for “MRT=AUMC0−tx/AUC0−tx”

[4] = hCB2R D80N-to-cerebellum, vehicle (10 min prior tracer), n = 3
[5] = hCB2R D80N-to-contralateral, vehicle (10 min prior tracer), n = 3
[6] = same rat model, comparator data ref 68

C[C@H]1CC[C@@H](NC(=O)c2cc3cccnc3n(CCCC[18F])c2=O)CC1 [[^18F]LU14]
decomposition of the formulated product [1]: No decomposition | time to peak (hCB2R(D80N); cerebellum): 1.6 ± 1.4 min | time to peak (hCB2R(D80N); contralateral region): 3.8 ± 1.6 min | time to peak (hCB2R(D80N); hCB2R(D80N) right striatum, rats, i.v., n = 3): 7.4 ± 2.8 min | AUC (hCB2R(D80N); cerebellum): 41.1 ± 5.6 SUV × min | AUMC (hCB2R(D80N); cerebellum): 819 ± 132 SUV × min^2 | MRT (hCB2R(D80N); cerebellum): 19.9 ± 1.2 min | TAC peak value (hCB2R(D80N); cerebellum): 2.7 ± 0.0 SUV | reduction of the AUC20–60min by displacement (hCB2R(D80N); compared to the cerebellum): 76% | reduction of the AUC20–60min by displacement (hCB2R(D80N); compared to the contralateral region): 73% | AUC (hCB2R(D80N); contralateral region): 42.6 ± 6.8 SUV × min | AUMC (hCB2R(D80N); contralateral region): 854 ± 165 SUV × min^2 | MRT (hCB2R(D80N); contralateral region): 20.0 ± 1.1 min | TAC peak value (hCB2R(D80N); contralateral region): 2.2 ± 0.4 SUV | change of AUC40–60min by displacement versus vehicle (hCB2R(D80N); hCB2R D80N-to-cerebellum): −76.3% | AUC40–60min (CI95%) (hCB2R(D80N); hCB2R D80N-to-cerebellum, displacement by GW405833 5 mg/kg i.v. 20 min after tracer, n = 2): 51 (42 to 60) SUVr × min | AUC0–20min (CI95%) (hCB2R(D80N); hCB2R D80N-to-cerebellum, displacement group (GW405833 5 mg/kg i.v. 20 min after tracer), n = 2): 49 (40 to 59) SUVr × min | AUC0–20min (CI95%) (hCB2R(D80N); [4]): 44 (39 to 48) SUVr × min | AUC40–60min (CI95%) (hCB2R(D80N); [4]): 215 (190 to 241) SUVr × min | change of AUC40–60min by displacement versus vehicle (hCB2R(D80N); hCB2R D80N-to-contralateral): −73.4% | AUC40–60min (CI95%) (hCB2R(D80N); hCB2R D80N-to-contralateral, displacement by GW405833 5 mg/kg i.v. 20 min after tracer, n = 2): 56 (50 to 62) SUVr × min | AUC0–20min (CI95%) (hCB2R(D80N); hCB2R D80N-to-contralateral, displacement group (GW405833 5 mg/kg i.v. 20 min after tracer), n = 2): 48 (41 to 54) SUVr × min | AUC0–20min (CI95%) (hCB2R(D80N); [5]): 40 (37 to 42) SUVr × min | AUC40–60min (CI95%) (hCB2R(D80N); [5]): 210 (190 to 231) SUVr × min | AUC (hCB2R(D80N); hCB2R(D80N) right striatum): 155 ± 28 SUV × min | AUMC (hCB2R(D80N); hCB2R(D80N) right striatum): 4349 ± 701 SUV × min^2 | MRT (hCB2R(D80N); hCB2R(D80N) right striatum): 28.0 ± 0.4 min | TAC peak value (hCB2R(D80N); hCB2R(D80N) right striatum): 3.3 ± 0.6 SUV | uptake in the brain region with CB2R overexpression compared to [11C]NE40 (hCB2R(D80N); [6]): about two-fold | uptake in the brain region with CB2R overexpression compared to [18F]MA3 (hCB2R(D80N); [6]): about five-fold | Kd (hCB2R): 2.9 nM | logD [2]: 3.15 ± 0.25 | AUC0–60min in the spleen, blocking versus control [3]: comparable
